Experimental data taken from US20210388005A1, “FLUORESCENT COMPOUND AND PREPARATION METHOD AND USE FOR THE SAME” (NEUBORON MEDTECH LTD., priority 2019, published 2021).

What was measured:
[1] = fluorescence spectrum at room temperature; type: physicochemical; conditions: excited at a wavelength
Procedure: (§1) To a single-necked flask is added 300 ml of absolute ethyl alcohol, 6.47 g of 3-bromomethyl phenylboronate indole quaternary ammonium salt, 2-chloro-3-hydroxymethylene cyclohexene carboxaldehyde, and 0.15 g of sodium acetate. The mixture is reacted at 70° C. for 1 h, and spin dried to remove the solvent. The resulting residue is separated by column chromatography, to obtain fluorescent compounds I-1 and I-2. The fluorescent compound I-1 has a maximum fluorescence emission peak at 808 nm when excited at a wavelength of […], and has a near infrared absorption peak in ethanol solution at 785 nm. The fluorescent compound I-2 has a maximum fluorescence emission peak at 811 nm when excited at a wavelength of […], and has a near infrared absorption peak in ethanol solution at 788 nm.

[2] = near-infrared absorption spectrum in ethanol solution; type: physicochemical
Procedure: FIG. 3 is a near-infrared absorption spectrum of compound I-1 and compound I-2 in Example 4 in ethanol solution.
as §1

SMILES	maximum fluorescence emission peak [1] [nm]	near infrared absorption peak [2] [nm]
CC1(C)C(/C=C/C2=C(Cl)C(=C/C=C3/N(Cc4cccc(B(O)O)c4)c4ccccc4C3(C)C)/CCC2)=[N+](Cc2cccc(B(O)O)c2)c2ccccc21 [Compound I-1]	808	785
CC1(C)C(/C=C/C2=C(Cl)C(=C/C=C3/N(Cc4ccccc4)c4ccccc4C3(C)C)/CCC2)=[N+](Cc2cccc(B(O)O)c2)c2ccccc21 [Compound I-2]	811	788
